From patent publication US20080242688A1, “Method 741” (ASTRAZENECA AB, priority 2007, published 2008)
“And” between values parts separate entries of the source, which are not always exact repeats. Equal entries are not always repeated.

Assays:
Single dose PK/TK, dog = assay type: in vivo; settings: for AUC / Cmax / Tmax: dog, in vivo, po
From the text: This section provides a summary of the pharmacokinetic and metabolism properties of AZD0328 derived from in vivo studies. […] The derived PK/TK parameters from these studies are presented in Table 4 for single dose studies (DMR4, 0619LR, 20030191PCR, DMO16, DMB10, DMW12, 50190, 0190DD and 03.330/1), and are presented in Table 5 multiple dose PK/TK studies (DMR4, 0612AR, DMB15, 50190, 0190DD and 0295AD).

[1] = test system: putative dopaminergic neurons within the VTA; assay: Ventral Tegmental Area dopamine neuron firing; assay type: in vivo; settings: rat, iv, 0.17-0.5 h
[2] = both sexes, 1.08 mg/kg, dog 2F+2M, 0190DD, oral 1.08 mg/kg (5 μmol/kg) split in two 6 h apart, capsules, fasted
[3] = both sexes, 1.08 mg/kg, dog 2F+2M, 0190DD, oral 1.08 mg/kg (5 μmol/kg) split in two 6 h apart, capsules, fed
[4] = both sexes, 1.08 mg/kg, dog 2F+2M, 0190DD, oral 1.08 mg/kg (5 μmol/kg) split in two 6 h apart, solution, fasted

With `c1cnc2c(c1)C[C@@]1(CN3CCC1CC3)O2` [AZD0328, (R)-Spiro[1-azabicyclo[2.2.2]octane-3,2′(3′H)-furo[2,3-b]pyridine]] as the molecule, how does the AUC (Single dose PK/TK, dog; [2]) read?
Its AUC is 68.1 ng·h/mL and 0.315 µM·h.

What about the Cmax (Single dose PK/TK, dog; [2]) of the same molecule?
The Cmax was 19.2 ng/mL and 89 nM.

And the Tmax (Single dose PK/TK, dog; [2])?
The Tmax was 60 to 180 min.

And the AUC (Single dose PK/TK, dog; [3])?
Its AUC is 177 ng·h/mL and 0.818 µM·h.

And the Cmax (Single dose PK/TK, dog; [3])?
The Cmax was 26.9 ng/mL and 124 nM.

And the Tmax (Single dose PK/TK, dog; [3])?
Its Tmax is 30 to 360 min.

What about the AUC (Single dose PK/TK, dog; [4]) of the same molecule?
The AUC was 104 ng·h/mL and 0.483 µM·h.

What about the Cmax (Single dose PK/TK, dog; [4]) of the same molecule?
The Cmax was 33.1 ng/mL and 153 nM.

What about the Tmax (Single dose PK/TK, dog; [4]) of the same molecule?
The Tmax was 30 min.

What about the F (Single dose PK/TK, dog; dog 4M, 0279ZD, single oral 17.3 mg/kg (80 μmol/kg)) of the same molecule?
The F was 0.146 ± 0.043%.

And the F (Single dose PK/TK, dog; dog 4M, 0279ZD, single oral 34.6 mg/kg (160 μmol/kg))?
Its F is 0.239 ± 0.099%.

What about the AUC (Single dose PK/TK, dog; male, 17.3 mg/kg, dog 4M, 0279ZD, single oral 17.3 mg/kg (80 μmol/kg)) of the same molecule?
Its AUC is 2530 ng·h/mL and 11.7 µM·h.

What about the AUC (Single dose PK/TK, dog; male, 34.6 mg/kg, dog 4M, 0279ZD, single oral 34.6 mg/kg (160 μmol/kg)) of the same molecule?
Its AUC is 8280 ng·h/mL and 38.3 µM·h.

What about the “Dose active: Ventral Tegmental Area dopamine neuron firing - increased” value [1] of the same molecule?
The value was 1.38 µg/kg.
